Columns and labels:
Assay in all cases: Anti-fungal activity of Sarcotoxin 1a in vitro (hyphal area on agar plate)
Type in all cases: cell-based
Fusarium oxysporum F-3 = conditions: 5-fold diluted PDA medium, 22° C. in the dark; FIG. 12
Procedure: (§1) Sarcotoxin 1a was measured for an anti-fungal activity against Fusarium oxysporum F-3, Rhizoctonia solani, and Rhizoctonia solani AG-4 1272.
(§2) It has not been known if Sarcotoxin 1a has an anti-fungal activity and how to measure the activity. Therefore, a pre-culture medium and a test medium were variously studied. The pre-culture medium, in which a lawn may be uniformly enlarged within a short period of time, was selected. The test medium, which controls the extension of hyphae as much as possible and allows easy confirmation, was selected.
(§3) (i) Czapek's modified medium (10 g of sucrose, 0.5 g of MgSO4.7H2O, 2.0 g of NaNO3, 0.01 g of Fe2(SO4)3, 1.0 g of K2HPO4, 0.5 g of KCl, 15 g of agarose per liter, pH 6.8 to 7.0; used for Rhizoctonia solani AG-4 1272), (ii) 5-fold diluted PDA medium (7.8 g of Bacto (Trademark) Poteto Dextrose Agar, 12 g of agarose per liter; used for Fusarium oxysporum F-3), (iii) Na2HPO4—NaH2PO4 buffer (15 g/l agarose, pH 5.8; used for Rhizoctonia solani).
(§4) The media for detection were autoclaved. When the media was cooled to 50° C., Sarcotoxin 1a (synthesized by a peptide synthesis and purified to 99% or more by HPLC) was added to each medium. Each of the resulting media was dispensed into a 12-well microplate at 400 μl per well and solidified.
(§5) Fusarium oxysporum F-3, Rhizoctonia solani, and Rhizoctonia solani AG-4 1272 were respectively pre-cultured in a PDA media (39 g/l Bacto (Trademark) Poteto Dextrose Agar) at 22° C. for 2 days.
(§6) An outermost lawn of each hypha spreading over almost the entire surface of the PDA medium of a 9 cm-petri dish was punched with a cork borer with a diameter of 4 mm, and each fungi was placed in the center of a well of a test plate in such a manner that the surface of the layer faced down. Each test plate for detection was kept at 22° C. in the dark.
(§7) Each test plate inoculated with the above-mentioned pathogenic fungi was measured for the size of each hypha growing under transmitted light at established periods, and the area of each hypha and a standard deviation were calculated (see FIGS. 12, 13, and 14). […]

[1] = tested on: Rhizoctonia solani AG-4 1272; conditions: Czapek's modified medium, 22° C. in the dark; FIG. 13
Procedure: as §1, §2, §3, §4, §5, §6, §7

Rhizoctonia solani = conditions: Na2HPO4-NaH2PO4 buffer agarose pH 5.8, 22° C. in the dark; FIG. 14
Procedure: as §1, §2, §3, §4, §5, §6, §7

Measured: anti-fungal properties (area of each hypha)

Sarcotoxin 1a (GWLKKIGKKIERVGQHTRDATIQGLGIAQQAANVAATAR) [anti-bacterial peptide derived from Boettherisca peregrina (Diptera insect); synthesized by a peptide synthesis and purified to 99% or more by HPLC]
concentration-dependent manner: all assays above

— patent publication US6750381B2, “Pathogen-resistant plants transformed with a DNA encoding sarcotoxin 1A linked to a signal peptide and a method for production thereof” (National Institute of Agrobiological Sciences, priority 1996, dated 2004)
